Ten compounds from patent US5733924A, “DC 107 derivatives and treatment methods” (Kyowa Hakko Kogyo Co., Ltd., priority 1995, dated 1998) can be followed below.

Structures are written as SMILES. Values after ≈ are worked out from the molar mass of the structure shown. Read-outs that look alike come from different tables or passages of the source.

One may read the ILS as the gain in survival time of treated over control animals, in per cent.

In test [1] the test system is Bacillus subtilis No. 10707. The test is described as follows: Antibacterial activity, agar dilution method (MIC). It counts as cell-based. The text has this: (§1) The antibacterial activity as determined by the agar dilution method using a medium prepared by dissolving 3 g of Bacto-Tryptone (a product of Difco Laboratories), 3 g of a meat extract, 1 g of an yeast extract, 1 g of glucose and 16 g of agar in one liter of water (pH 7).
BS: Bacillus subtilis No. 10707
In general terms: In agar dilution, organisms are placed on agar that contains the substance at set levels.

The subject of another test is P388 Leukemia. As to the kind of experiment: Antitumor activity against P388 leukemia in mice (increased life span). The class given is in vivo, CDF1 mice. The following applies: Mus musculus, P388, ip, 720 h; for ILS at 8 mg/kg / ILS at 4 mg/kg: read-out: ILS (increased life span). As to the method: Ascites were collected from the abdominal cavity of P388 ascites tumor-bearing cancer mice (DBA/2) on the 7th day after transplantation. A number of P388 cells in the ascites was counted, and a tumor cell floating liquid of 5×10^6 cells/ml was prepared using a physiological saline solution. Then, 0.2 ml of the solution containing 1×10^6 cells was transplanted into the abdominal cavity of CDF1 mice having a body weight of from 20 to 25 g.
The effect of the test compound was determined in terms of the ratio of average survival days of the group administered with the test compound to average survival days of the control group (non-medicated group) (i.e., an increased life span, ILS%).

The test system of a further test is Escherichia coli ATCC 26. The test is described as follows: Antibacterial activity, agar dilution method (MIC). The class given is cell-based.
From the text: as §1
EC: Escherichia coli ATCC 26

In test [2] the test system is Staphylococcus aureus ATCC 6538P. As to the kind of experiment: Antibacterial activity, agar dilution method (MIC). It counts as cell-based. The following applies: ATCC6538P.
From the text: as §1
SA: Staphylococcus aureus ATCC 6538P

Test [3] concerns Klebsiella pneumoniae ATCC 10031. As to the kind of experiment: Antibacterial activity, agar dilution method (MIC). The class given is cell-based.
From the text: as §1
KP: Klebsiella pneumoniae ATCC 10031

Test [4] has as its system Enterococcus faecium ATCC 10541. The test is described as follows: Antibacterial activity, agar dilution method (MIC). The class given is cell-based.
From the text: as §1
EF: Enterococcus faecium ATCC 10541

[5] abbreviates: BS: Bacillus subtilis No. 10707, pH 7, read-out: MIC (minimum growth inhibitory concentration).
Setting [6] is: single i.p. 24 hours after transplantation, CDF1 mice, 30 days observation.
Where [7] appears, read: ATCC26, EC: Escherichia coli ATCC 26, pH 7, read-out: MIC (minimum growth inhibitory concentration).
Where [8] appears, read: SA: Staphylococcus aureus ATCC 6538P, agar dilution, pH 7, read-out: MIC (minimum growth inhibitory concentration).
The mark [9] stands for this setting: ATCC10031, KP: Klebsiella pneumoniae ATCC 10031, agar dilution, pH 7, read-out: MIC (minimum growth inhibitory concentration).
[10] abbreviates: ATCC10541, EF: Enterococcus faecium ATCC 10541, pH 7, read-out: MIC (minimum growth inhibitory concentration).
[11] abbreviates: 4.0 mg/kg, single i.p. 24 hours after transplantation, CDF1 mice, 30 days observation.

`C/C1=C\C(OC(=O)CNC(=O)OCc2ccccc2)C(=O)/C=C/C=C\c2csc(n2)C(C)NC(=O)CC2(CC1)[S+]([O-])SC(=O)C2(C)O` (centres unmarked) [Compound 97]: the MIC came to 0.33 µg/mL (≈ 0.47 µM) in test [1] (setting [5]); 0.65 µg/mL (≈ 0.926 µM) in the test on Escherichia coli ATCC 26 (setting [7]); 0.041 µg/mL (≈ 0.0584 µM) in test [2] (setting [8]); 0.81 µg/mL (≈ 1.15 µM) in test [3] (setting [9]); 0.041 µg/mL (≈ 0.0584 µM) in test [4] (setting [10]). Besides, the ILS at 8 mg/kg in the test on P388 Leukemia (setting [6]) was found to be 54%.
As to `C/C1=C\C(OC(=O)CNC=O)C(=O)/C=C/C=C\c2csc(n2)C(C)NC(=O)CC2(CC1)[S+]([O-])SC(=O)C2(C)O` (centres unmarked) [Compound 99], the MIC in test [1] (setting [5]) turned out to be 0.041 µg/mL (≈ 0.0688 µM); with Escherichia coli ATCC 26 (setting [7]) it was 2.6 µg/mL (≈ 4.36 µM); in test [2] (setting [8]) it was 0.041 µg/mL (≈ 0.0688 µM); in test [3] (setting [9]) it was 0.041 µg/mL (≈ 0.0688 µM); in test [4] (setting [10]) it was 0.041 µg/mL (≈ 0.0688 µM). For the same compound, the ILS at 8 mg/kg in the test with P388 Leukemia (setting [6]) is 56%.
Turning to `CC(=O)NCC(=O)OC1/C=C(\C)CCC2(CC(=O)NC(C)c3nc(cs3)/C=C\C=C\C1=O)[S+]([O-])SC(=O)C2(C)O` (centres unmarked) [Compound 100], the MIC turned out to be 0.081 µg/mL (≈ 0.133 µM) in test [1] (Bacillus subtilis, NO.10707, pH 7, read-out: MIC (minimum growth inhibitory concentration), BS: Bacillus subtilis No. 10707); 2.6 µg/mL (≈ 4.26 µM) with Escherichia coli ATCC 26 (Escherichia coli, ATCC26, pH 7, read-out: MIC (minimum growth inhibitory concentration), EC: Escherichia coli ATCC 26); 0.041 µg/mL (≈ 0.0672 µM) in test [2] (Staphylococcus aureus, pH 7, read-out: MIC (minimum growth inhibitory concentration)); 0.041 µg/mL (≈ 0.0672 µM) in test [3] (Klebsiella pneumoniae, ATCC10031, pH 7, read-out: MIC (minimum growth inhibitory concentration)); 0.041 µg/mL (≈ 0.0672 µM) in test [4] (Enterococcus faecium, ATCC10541, pH 7, read-out: MIC (minimum growth inhibitory concentration), EF: Enterococcus faecium ATCC 10541). The ILS at 4 mg/kg with P388 Leukemia amounted to 66%.
Regarding `C/C1=C\C(OC(=O)[C@H](C)NC(=O)OCc2ccccc2)C(=O)/C=C/C=C\c2csc(n2)C(C)NC(=O)CC2(CC1)[S+]([O-])SC(=O)C2(C)O` (some centres unmarked) [Compound 103], the MIC is 0.041 µg/mL (≈ 0.0573 µM) in test [1] (setting [5]); 10 µg/mL (≈ 14 µM) in the test with Escherichia coli ATCC 26 (setting [7]); 42 µg/mL (≈ 58.7 µM) in test [2] (setting [8]); 1.3 µg/mL (≈ 1.82 µM) in test [3] (setting [9]); 0.081 µg/mL (≈ 0.113 µM) in test [4] (setting [10]). In addition, in the test on P388 Leukemia (setting [11]), the ILS at 4 mg/kg was determined as 52%.
For `C/C1=C\C(OC(=O)CCCNC(=O)OCc2ccccc2)C(=O)/C=C/C=C\c2csc(n2)C(C)NC(=O)CC2(CC1)[S+]([O-])SC(=O)C2(C)O` (centres unmarked) [Compound 106], the MIC was found to be 0.041 µg/mL (≈ 0.0562 µM) in test [1] (setting [5]); 10 µg/mL (≈ 13.7 µM) with Escherichia coli ATCC 26 (setting [7]); 0.16 µg/mL (≈ 0.219 µM) in test [2] (setting [8]); 1.3 µg/mL (≈ 1.78 µM) in test [3] (setting [9]); 0.16 µg/mL (≈ 0.219 µM) in test [4] (setting [10]). In addition, in the test with P388 Leukemia (setting [6]), the ILS at 16 mg/kg was determined as 62%.
Regarding `C/C1=C\C(OC(=O)CNC(=O)CNC(=O)OCc2ccccc2)C(=O)/C=C/C=C\c2csc(n2)C(C)NC(=O)CC2(CC1)[S+]([O-])SC(=O)C2(C)O` (centres unmarked) [Compound 108], the MIC in test [1] (setting [5]) was determined as 0.041 µg/mL (≈ 0.054 µM); in the test on Escherichia coli ATCC 26 (setting [7]) it was 21 µg/mL (≈ 27.7 µM); in test [2] (setting [8]), 0.16 µg/mL (≈ 0.211 µM); in test [3] (setting [9]) it was 0.33 µg/mL (≈ 0.435 µM); in test [4] (setting [10]), 0.081 µg/mL (≈ 0.107 µM). Also, the ILS at 4 mg/kg in the test on P388 Leukemia (setting [11]) came out at 72%.
In the case of `C/C1=C\C(OC(=O)CNC(=O)CNC(=O)c2ccccc2)C(=O)/C=C/C=C\c2csc(n2)C(C)NC(=O)CC2(CC1)[S+]([O-])SC(=O)C2(C)O` (centres unmarked) [Compound 109], the MIC amounted to 0.35 µg/mL (≈ 0.48 µM) in test [1] (setting [5]); 3.2 µg/mL (≈ 4.39 µM) in the test on Escherichia coli ATCC 26 (setting [7]); 0.081 µg/mL (≈ 0.111 µM) in test [2] (setting [8]); 0.041 µg/mL (≈ 0.0563 µM) in test [3] (setting [9]); 0.081 µg/mL (≈ 0.111 µM) in test [4] (setting [10]). In the test on P388 Leukemia (setting [6]), the ILS at 8 mg/kg was determined as 78%.
`C/C1=C\C(OC(=O)CNC(=O)CCNC(=O)OCc2ccccc2)C(=O)/C=C/C=C\c2csc(n2)C(C)NC(=O)CC2(CC1)[S+]([O-])SC(=O)C2(C)O` (centres unmarked) [Compound 111]: the MIC in test [1] (setting [5]) is 0.081 µg/mL (≈ 0.105 µM); in the test with Escherichia coli ATCC 26 (setting [7]), 2.6 µg/mL (≈ 3.36 µM); in test [2] (setting [8]), 0.33 µg/mL (≈ 0.427 µM); in test [3] (setting [9]), 0.041 µg/mL (≈ 0.053 µM); in test [4] (setting [10]) it was 0.16 µg/mL (≈ 0.207 µM). The compound further gave an ILS at 16 mg/kg in the test on P388 Leukemia (setting [6]) of 76%.
Consider `C/C1=C\C(OC(=O)CNC(=O)CN(C)C(=O)OCc2ccccc2)C(=O)/C=C/C=C\c2csc(n2)C(C)NC(=O)CC2(CC1)[S+]([O-])SC(=O)C2(C)O` (centres unmarked) [Compound 114], for which the MIC amounted to 0.037 µg/mL (≈ 0.0479 µM) in test [1] (setting [5]); 11 µg/mL (≈ 14.2 µM) with Escherichia coli ATCC 26 (setting [7]); 0.037 µg/mL (≈ 0.0479 µM) in test [2] (setting [8]); 1.2 µg/mL (≈ 1.55 µM) in test [3] (setting [9]); 0.037 µg/mL (≈ 0.0479 µM) in test [4] (setting [10]). The ILS at 4 mg/kg with P388 Leukemia (setting [11]) is 70%.
Regarding `C/C1=C\C(OC(=O)CNC(=O)[C@H](CO)NC(=O)OCc2ccccc2)C(=O)/C=C/C=C\c2csc(n2)C(C)NC(=O)CC2(CC1)[S+]([O-])SC(=O)C2(C)O` (some centres unmarked) [Compound 116], the MIC was 0.033 µg/mL (≈ 0.0418 µM) in test [1] (setting [5]); 4.2 µg/mL (≈ 5.32 µM) in the test with Escherichia coli ATCC 26 (setting [7]); 0.033 µg/mL (≈ 0.0418 µM) in test [2] (setting [8]); 0.033 µg/mL (≈ 0.0418 µM) in test [3] (setting [9]); 0.033 µg/mL (≈ 0.0418 µM) in test [4] (setting [10]).
